According to patent publication US9845482B2, “Compositions and methods for enhancing bioenergetic status in female germ cells” (The General Hospital Corporation, priority 2011, dated 2017):

Key:
OSCs from mice = assay: Screen of mouse OSCs for compounds that enhance mitochondrial function (mtDNA, ATP, mitochondrial mass, membrane potential, gene expression); format: cell-based; settings: 24 hours; for activity above the baseline (DMSO alone), scored as a positive result: 25 or 50 μM (berberine 5 μM and 25 μM)
Excerpt: Female infertility due to chemotherapy, aging and premature ovarian failure (POF) is due in part to a decline in mitochondrial function in oocytes and OSCs. Accordingly, OSCs from mice were used to screen for small compounds that enhance mitochondrial function (“bioenergetic status”) in female germline cells. Assays for enhancing mitochondrial function included mtDNA content, ATP, NAD+/NADH, mitochondrial mass, mitochondrial membrane potential, and gene expression of known mitochondrial mass regulators and electron transport chain components.
All the compounds were dissolved in DMSO. For screening purposes the cells were treated with the vehicle (0.001% DMSO) or with 25 or 50 μM of each compound (except for berberine, which the concentrations used for the screen were 5 μM and 25 μM) for 24 hours. For validation of the top 6 hits, cells were treated with vehicle (0.001% DMSO) or either 5 or 25 μM of each compound for 24 hours. For the gene expression profile, the cells were treated with the concentration that was considered to work better in the previous validation assays.
Mitochondrial membrane potential was measured with a fluorescent probe, Tetramethylrhodamine methyl ester (TMRM) (Sigma) as described before (Rolo A. P. Biochim. Biophys. Acta 2003 1637: 127-132). Briefly the cells were loaded with 6.6 μM TMRM in HBSS buffer at 37° C. for 15 minutes in the dark. The supernatant was then aspirated, and the cells returned to the original volume with KHH. TMRM is a membrane-permeable cationic fluorophore that accumulates electrophoretically in mitochondria in proportion to their mitochondrial membrane potential (Ehrenberg B. V. et al. Biophys. J. 1988 53:785-794). Cell suspensions (200 μl containing 10^5 cells) were loaded into 96-well plates and fluorescence measured using excitation and emission wavelengths of 485 and 590 nm, respectively. Mitochondrial membrane potential was estimated, taking into account the complete depolarization caused by carbonyl cyanide p-(trifluoromethoxy)phenylhydrazone (FCCP).
For mtDNA analysis, total DNA was extracted with DNeasy blood and tissue kit (QIAGEN). mtDNA was amplified using primers specific for the mitochondrial cytochrome c oxidase subunit 2 (COX2) gene and normalized to genomic DNA by amplification of the ribosomal protein s18 (rps18) nuclear gene. Primers were designed using the IDT software (IDT).
ATP content was measured using a luciferase-based assay with a commercial kit according to the manufacturer's instructions (Roche Applied Science, Penzberg, Germany) and normalized to protein content in each sample.
Mitochondrial mass was evaluated using the fluorescent probe N-nonyl acridine orange (NAO), briefly the cells were incubated in culture media containing 10 nM of NAO for 30 minutes at 37° C. in the dark. The cells were then trypsinized and resuspended in culture media without NAO. The NAO fluorescence intensity was then determined by flow cytometry on the FACSCALIBUR® (BD Biosciences, San Jose, Calif., USA) using the 488 nm laser.
For gene expression analysis, RNA from skeletal muscle tissue and C2C12 cells were extracted with RNeasy mini kit (QIAGEN) according to the instructions and quantified using the NanoDrop 1000 spectrophotometer (Thermo Scientific). cDNA was synthesized with the iSCRIP cDNA synthesis kit (BioRad) using 200 ng of RNA. Quantitative RT-PCR reactions were performed using 1 μM of primers and LIGHTCYCLER® 480 SYBR® Green Master (Roche Applied Science, Penzberg, Germany) on an LIGHTCYCLER® 480 detection system (Roche Applied Science, Penzberg, Germany). Calculations were performed by a comparative method (2-ΔΔCT) using actin as an internal control. Primers were designed using the IDT software (IDT).

[1] = system: MII oocytes of aged female mice (C57BL/6); assay: Dietary supplementation of aged female mice: spindle abnormalities and chromosomal misalignment in MII oocytes; format: in vivo; settings: for chromosomal misalignment in MII oocytes (change) / percentage of spindle abnormalities in MII oocytes (change): compared to Hist 12 M; for chromosomal misalignment, present in % of oocytes / spindle abnormalities, present in % of oocytes: diet for 3 months, apigenin 0.5 g/kg, luteolin 0.5 g/kg, SRT-1720 2 g/kg
Procedure: Confocal analysis of α-tubulin and DNA distribution were examined. Superovulated oocytes were denuded of cumulus cells, briefly incubated in Acidified Tyrode's Solution (Irvine Scientific, Santa Ana, Calif., USA) to soften the zona pellucida, and immunostained using mouse anti-α-tubulin antibody (Sigma Aldrich Corporation, St. Louis, Mo., USA) followed by goat anti-mouse IgG conjugated with Alexa Fluor-488 (Life Technologies, Carlsbad, Calif.). Oocytes were mounted using Vectashield containing propidium iodide (PI; Vector Laboratories) and analyzed by confocal microscopy.
Female mice (8 months old, strain C57BL/6) were maintained on a 12:12 light dark cycle and provided ad-libitum access to water and food. Conditions within rooms were maintained at 21°±1° C. with 50%±20% relative humidity. Mice were placed on the experimental diets at 8.5 months of age and were maintained for 3 months on the diets. All diets were custom made, ordered from Research Diets: OpenStandard Diet (20 kcal % Protein, 15 kcal % Fat and 65 kcal % Carbohydrate) and the experimental groups consisted of regular OpenStandard Diet, OpenStandard Diet+Apigenin at 0.5 g/kg of body weight, OpenStandard Diet+Luteolin at 0.5 g/kg, and OpenStandard Diet+SRT-1720 at 2 g/kg. Food intake was measured weekly and average weight gain was assessed every two weeks. Each experimental group consisted of 12 randomly allocated mice. When mice were euthanized an additional group of 3-month old C57BL/6 females (3 M) were used as positive controls. In all groups, oocyte numbers were assessed following hormonal stimulation for superovulation.
Methods for determining spindle abnormalities and chromosomal misalignment are described above in Example 8. Abnormal mitochondrial distribution was determined to be present in 16.13% of oocytes from 3 M mice, 46% of oocytes from Hist 12 M mice, 7.7% of oocytes following supplementation with apigenenin, 12% of oocytes following supplementation with luteolin and 6.9% of oocytes following supplementation with SRT-1720. Spindle abnormalities were determined to be present in 18.3% of oocytes in 3 M mice, 60% of oocytes in Hist 12 M mice, 32% of oocytes following supplementation with apigenenin, 32% of oocytes following supplementation with luteolin and 32.8% of oocytes following supplementation with SRT-1720. Chromosomal misalignment was determined to be present 18.3% of oocytes in 3 M mice, 62% of oocytes in Hist 12 M mice, 44% of oocytes from mice supplemented with apigenenin, 40% of oocytes following supplementation with luteolin and 40.9% of oocytes following supplementation with SRT-1720.

| SMILES | mitochondrial parameters (OSCs from mice) | activity above the baseline (DMSO alone), scored as a positive result (OSCs from mice) | chromosomal misalignment in MII oocytes (change) [1] | percentage of spindle abnormalities in MII oocytes (change) [1] | chromosomal misalignment, present in % of oocytes [1] | spindle abnormalities, present in % of oocytes [1] |
| --- | --- | --- | --- | --- | --- | --- |
| O=c1cc(-c2ccc(O)cc2)oc2cc(O)cc(O)c12 [apigenin, 5,7-Dihydroxy-2-(4-hydroxyphenyl)-4H-1-benzopyran-4-one] | increase mitochondrial parameters in a beneficial way | activity above the baseline | reduced chromosomal misalignment | reduced percentage of spindle abnormalities | 44% | 32% |
| O=c1cc(-c2ccc(O)c(O)c2)oc2cc(O)cc(O)c12 [luteolin, 2-(3,4-Dihydroxyphenyl)-5,7-dihydroxy-4-chromenone] | increase mitochondrial parameters in a beneficial way | activity above the baseline | reduced chromosomal misalignment | reduced percentage of spindle abnormalities | 40% | 32% |
| O=C(Nc1ccccc1-c1cn2c(CN3CCNCC3)csc2n1)c1cnc2ccccc2n1 [SRT-1720, N-[2[3-(piperazin-1-ylmethyl)imidazo[2,1-b][1,3]thiazol-6-yl]phenyl]quinoxaline-2-carboxamide] | increase mitochondrial parameters in a beneficial way | activity above the baseline | reduced chromosomal misalignment | reduced percentage of spindle abnormalities | 40.9% | 32.8% |
